Results: patent US8906826B2, “Herbicidal compositions comprising 4-amino-3-chloro-5-fluoro-6-(4-chloro-2-fluoro-3-methoxyphenyl) pyridine-2-carboxylic acid or a derivative thereof and imidazolinones” (Dow AgroSciences, LLC, priority 2012, dated 2014)

What was measured:
LEFCH = assay: Postemergence foliar-applied, direct seeded rice weeds (Example I); assay type: in vivo, Leptochloa chinensis (L.) Nees
Text: Seeds or nutlets of the desired test plant species were planted in a soil matrix prepared by mixing a loam or sandy loam soil (e.g., 28.6 percent silt, 18.8 percent clay, and 52.6 percent sand, with a pH of about 5.8 and an organic matter content of about 1.8 percent) and calcareous grit in an 80 to 20 ratio. The soil matrix was contained in plastic pots with a volume of 1 quart and a surface area of 83.6 cm^2. When required to ensure good germination and healthy plants, a fungicide treatment and/or other chemical or physical treatment was applied. The plants were grown for 8-22 days in a greenhouse with an approximate 14 h photoperiod which was maintained at about 29° C. during the day and 26° C. during the night. Nutrients (Peters Excel® 15-5-15 5-Ca 2-Mg and iron chelate) were applied in the irrigation solution as needed and water was added on a regular basis. Supplemental lighting was provided with overhead metal halide 1000-Watt lamps as necessary. The plants were employed for testing when they reached the first through fourth true leaf stage.
Treatments consisted of the acid or esters of 4-amino-3-chloro-5-fluoro-6-(4-chloro-2-fluoro-3-methoxy-phenyl)pyridine-2-carboxylic acid (Compound A), each formulated as an SC (suspension concentrate), and various herbicidal components alone and in combination. Forms of compound A were applied on an acid equivalent basis.
Other herbicidal components were applied on an acid equivalent basis and include acetolactate synthase (ALS)-inhibiting herbicides (imidazolinone chemical class) imazethapyr ammonium salt formulated as Newpath®, imazamox ammonium salt formulated as Beyond®, imazapic ammonium salt formulated as Plateau®, imazapyr isopropylamine salt formulated as Arsenal®, imazamethabenz-methyl (technical material) and imazaquin isopropylamine salt formulated as Scepter®/Imagine®.
(§1) Treatment requirements were calculated based upon the rates being tested, the concentration of active ingredient or acid equivalent in the formulation, and a 12 mL application volume at a rate of 187 L/ha.
For treatments comprised of formulated compounds, measured amounts of compounds were placed individually in 25 mL glass vials and diluted in a volume of 1.25% (v/v) Agri-Dex® crop oil concentrated to obtain 12× stock solutions. […] Application solutions were prepared by adding an appropriate amount of each stock solution (e.g., 1 mL) and diluted to the appropriate final concentrations with the addition of 10 mL of an aqueous mixture of 1.25% (v/v) crop oil concentrate so that the final spray solutions contained 1.25+/−0.05% (v/v) crop oil concentrate. […]
For treatments comprised of formulated and technical compounds, weighed amounts of the technical materials were placed individually in 25 mL glass vials and dissolved in a volume of 97:3 v/v acetone/DMSO to obtain 12× stock solutions, and measured amounts of the formulated compounds were placed individually in 25 mL glass vials and diluted in a volume of 1.5% (v/v) crop oil concentrate or water to obtain 12× stock solutions. […] Application solutions were prepared by adding an appropriate amount of each stock solution (e.g., 1 mL) and diluted to the appropriate final concentrations with the addition of an appropriate amount of an aqueous mixture of 1.5% (v/v) crop oil concentrate so that the final spray solutions contained 1.25% (v/v) crop oil concentrate. As required, additional water and/or 97:3 v/v acetone/DMSO was added to individual application solutions so that the final acetone and DMSO concentrations of the application solutions being compared were 8.1% and 0.25%, respectively.
(§2) All stock solutions and applications solutions were visually inspected for compound compatibility prior to application. […]

ALOMY = assay: Postemergence foliar-applied, general weed control (Example III); assay type: in vivo, Alopecurus myosuroides Huds.
Description: Seeds or nutlets of the desired test plant species were planted in Sun Gro Metro-Mix® 360 planting mixture, which typically has a pH of about 6.0 to about 6.8 and an organic matter content of about 30 percent, in plastic pots with a surface area of 84.6 cm^2 and a volume of 560 cubic centimeters (cm^3). When required to ensure good germination and healthy plants, a fungicide treatment and/or other chemical or physical treatment was applied. The plants were grown for 7-31 days (d) in a greenhouse with an approximate 15 hour (h) photoperiod which was maintained at about 23-29° C. during the day and about 22-28° C. during the night. Nutrients (Peters Excel® 15-5-15 5-Ca 2-Mg) and water were added on a regular basis and supplemental lighting was provided with overhead metal halide 1000-Watt lamps as necessary. The plants were employed for testing when they reached the first, second, or third true leaf stage.
as §1
Treatments consisted of the acid or esters of 4-amino-3-chloro-5-fluoro-6-(4-chloro-2-fluoro-3-methoxy-phenyl)pyridine-2-carboxylic acid (Compound A), each formulated as an SC, and various herbicidal components alone and in combination. Forms of compound A were applied on an acid equivalent basis.
Other herbicidal components were applied on an acid equivalent basis and included acetolactate synthase (ALS)-inhibiting herbicides (imidazolinone chemical class) imazethapyr ammonium salt formulated as Newpath®, and imazapic ammonium salt formulated as Plateau®.
For treatments comprised of formulated compounds, measured amounts of compounds were placed individually in 25 mL glass vials and diluted in a volume of 1.25% (v/v) Agri-Dex® crop oil concentrated to obtain 12× stock solutions. […] Application solutions were prepared by adding an appropriate amount of each stock solution (typically 1 mL) and diluted to the appropriate final concentrations with the addition of 10 mL of an aqueous mixture of 1.25% (v/v) crop oil concentrate so that the final spray solutions contained 1.25+/−0.05% (v/v) crop oil concentrate.
as §2
The treated plants and control plants were placed in a greenhouse as described above and watered by sub-irrigation to prevent wash-off of the test compounds. After approximately 3 weeks, the condition of the test plants as compared with that of the untreated plants was determined visually and scored on a scale of 0 to 100 percent where 0 corresponds to no injury or growth inhibition and 100 corresponds to complete kill. […]

SMILES: COCc1cnc(C2=NC(C)(C(C)C)C(=O)N2)c(C(=O)O)c1.N (racemic) [Imazamox ammonium, ammonium (±)-2-[4,5-dihydro-4-methyl-4-(1-methylethyl)-5-oxo-1H-imidazol-2-yl]-5-(methoxymethyl)-3-pyridinecarboxylate]
- Visual Weed Control (%) - 25 DAA LEFCH Obs (LEFCH; Imazamox ammonium 11.2 gae/ha): 20%

SMILES: CCc1cnc(C2=NC(C)(C(C)C)C(=O)N2)c(C(=O)O)c1.N (racemic) [Imazethapyr ammonium, ammonium (±)-2-[4,5-dihydro-4-methyl-4-(1-methylethyl)-5-oxo-1H-imidazol-2-yl]-5-ethyl-3-pyridinecarboxylate]
- Visual Weed Control (%) - 25 DAA LEFCH Obs (LEFCH; Imazethapyr ammonium 8.75 gae/ha): 20%

SMILES: Cc1cnc(C2=NC(C)(C(C)C)C(=O)N2)c(C(=O)O)c1.N (racemic) [Imazapic ammonium, ammonium (±)-2-[4,5-dihydro-4-methyl-4-(1-methylethyl)-5-oxo-1H-imidazol-2-yl]-5-methyl-3-pyridinecarboxylic acid]
- Visual Weed Control (%) - 25 DAA LEFCH Obs (LEFCH; Imazapic ammonium 17.5 gae/ha): 50%
- Visual Weed Control (%) - 20 DAA LEFCH Obs (LEFCH; Imazapic ammonium 35 gae/ha): 85%
- Visual Control (%) - 19 DAA ALOMY Obs (ALOMY; Imazapic ammonium 35 gae/ha): 30%
- Visual Weed Control (%) - 19 DAA ALOMY Obs (ALOMY; Imazapic ammonium 35 gae/ha): 30%

SMILES: COc1c(Cl)ccc(-c2nc(C(=O)O)c(Cl)c(N)c2F)c1F [Compound A Acid, 4-amino-3-chloro-6-(4-chloro-2-fluoro-3-methoxyphenyl)-5-fluoropyridine-2-carboxylic acid]
- Visual Weed Control (%) - 25 DAA LEFCH Obs (LEFCH; Compound A Acid 4.38 gae/ha): 0%
- Visual Weed Control (%) - 25 DAA LEFCH Obs (LEFCH; Compound A Acid 8.75 gae/ha): 10%
- Visual Weed Control (%) - 25 DAA LEFCH Obs (LEFCH; Compound A Acid 17.5 gae/ha): 45%
- Visual Weed Control (%) - 20 DAA LEFCH Obs (LEFCH; Compound A Acid 19.4 gae/ha): 5%
- Visual Weed Control (%) - 19 DAA ALOMY Obs (ALOMY; Compound A Acid 29 gae/ha): 10%

SMILES: COc1c(Cl)ccc(-c2nc(C(=O)OCc3ccccc3)c(Cl)c(N)c2F)c1F [Compound A Benzyl Ester, benzyl ester of 4-amino-3-chloro-5-fluoro-6-(4-chloro-2-fluoro-3-methoxy-phenyl)pyridine-2-carboxylic acid]
- Visual Weed Control (%) - 25 DAA LEFCH Obs (LEFCH; Compound A Benzyl Ester 8.75 gae/ha): 70%
- Visual Weed Control (%) - 25 DAA LEFCH Obs (LEFCH; Compound A Benzyl Ester 17.5 gae/ha): 70%
- Visual Control (%) - 19 DAA ALOMY Obs (ALOMY; Compound A Benzyl Ester 24 gae/ha): 20%
